According to PMC10180065, “Mechanistic Studies of Arene–Ruthenium(II) Complexes with Carbothioamidopyrazoles as Alternative Cancer Drugs” (Molecules, 2023):

Test system: PARP1
Assay: Cleaved PARP level (ELISA), WM115 cells
Assay type: cell-based, human
Conditions: WM115, 24 h at IC50 concentration
Experimental: Cells (1 × 10^6) were seeded in 35 mm dishes and cultured for 24 h in the appropriate medium until they reached log phase growth. […] After incubation, the medium was removed, the cells were washed with PBS solution and trypsinized. The harvested cell pellet was lysed in RIPA buffer (50 mM Tris-HCL, pH 8.0, with 150 mM sodium chloride, 1.0% Igepal CA-630 (NP-40), 0.5% sodium deoxychlorate, and 0.1% sodium dodecyl sulfate) with protease inhibitor (phenylmethylsulfonyl fluoride) (Sigma-Aldrich Sigma, St. Louis, MO, USA). The level of cleaved PARP was estimated using the PARP Cleaved [214/215] ELISA kit (Invitrogen, Waltham, MA, USA) according to the protocol described in the manufacturer’s instructions.

SMILES	increase in level of PARP1 degradation compared to controls [%]
CCc1cc(CC)n(C(N)=S)n1.Cc1ccc(C(C)C)cc1.F[P-](F)(F)(F)(F)F.[Cl-].[Ru+2] [3b]	~140

Test system: HT29
Assay: MTT cytotoxicity, HT29
Assay type: cell-based, human
Conditions: 48 h incubation, read-out: Cytotoxic effect, IC50
Experimental: (§1) Cytotoxicity was evaluated against fifteen adherent human cancer cell lines using the MTT test: colorectal adenocarcinoma cells Caco2 (ATCC® HTB-37™), colorectal adenocarcinoma cells HT29 (ATCC® HTB-38™), colon colorectal carcinoma HCT116 (ATCC® CCL-247™), colon adenocarcinoma COLO205 (ATCC® CCL-222™), colorectal adenocarcinoma SW620 (ATCC® CCL-227™), colorectal adenocarcinoma grade IV LoVo (ATCC® CCL-229™), hepatocellular carcinoma Hep 3b (ATCC® HB-8064™), endometrium adenocarcinoma HEC1A (ATCC® HTB-112™), Ishikawa (99040201; Sigma–Aldrich Sigma, St. Louis, MO, USA), cervical adenocarcinoma cells HeLa (ATCC® CCL-2™), lung epithelial carcinoma A549 (ATCC® CRM-CCL-185™), breast epithelial adenocarcinoma cell positive for estrogen and progesterone receptors MCF7 (ATCC® HTB-22™) and negative for expression of estrogen receptor HCC38 (ATCC® CRL-2314™), acute promyelocytic leukemia HL-60 (ATCC® CCL-240™), skin melanoma WM115 (ATCC® CRL-1676™), and 1 suspension cancer cell line: acute lymphoblastic leukemia NALM6 (purchased from the German Collection of Microorganisms and Cell Cultures). HT29, NALM6, HCC-38 and HL-60 cells were cultured in RPMI 1640 medium (Thermo Fisher Scientific, Waltham, MA, USA) supplemented with 10% fetal bovine serum and antibiotic (gentamicin 25 μg ml^−1) (Gibco, Grand Island, New York, NY, USA). For the remaining tumor cell lines, Dulbecco’s minimal essential medium (DMEM, Lonza, Visp, Switzerland) supplemented with 10% fetal bovine serum and antibiotic instead of RPMI 1640 was used. In addition, Human Microvascular Endothelial Cells (HMEC1), which were obtained from the American Type Culture Collection (Manassas, VA, USA), were used as a model of normal cells. HMEC-1 were cultured in MCDB131 medium (Corning Life Sciences, Corning, NY, USA), supplemented with 10% fetal bovine serum, 10 ng/mL Epidermal Growth Factor (Millipore, Burlington, MA, USA) and 10 mM glutamine (Corning Life Sciences). All cells were grown at 37 °C in humidified atmosphere of 5% CO2 in air. The exponential growth of cells was maintained by regular passaging at 90% confluence three times a week using 0.025% trypsin/EDTA (Gibco, Grand Island, New York, NY, USA).
(§2) The cytotoxicity was tested by a standard MTT [3-(4,5-dimethylthiazol-2-yl)-2,5-diphenyltetrazolium bromide] (Sigma, St. Louis, MO, USA) microplate cell viability assay. The anticancer activity of the investigated compounds was evaluated in vitro on the basis of their ability to inhibit the proliferation of various cancer cells. Exponentially growing cells were seeded a day before the experiment into a 96-well microplate (Nunc, Roskilde, Denmark) at a density up to 6–8 × 10^3 cells/mL (depending on the cell line) and exposed to the test compounds at a wide range of concentrations for 48 h. Subsequently, various concentrations of the studied compounds (10^−7–10^−5 M) freshly prepared in DMSO (final concentration of <0.1% DMSO) and diluted with complete culture medium were added. After 48 h incubation, the cells were immediately subjected to a cell viability assay. At this time point, the number of viable cells in each well was estimated by the MTT test. Briefly, 50 µL (5 mg/mL final concentration) of MTT was added to each microplate well. This procedure was then followed by a three- to four-hour incubation at 37 °C. After incubation, MTT solution was replaced with 100 µL DMSO/well, which solubilized the formazan crystals formed by the dehydrogenases of metabolically active cells. Purple formazan absorbance was measured spectrophotometrically at 570 nm.

SMILES	IC50 [µM]
CCc1cc(CC)n(C(N)=S)n1.Cc1ccc(C(C)C)cc1.F[P-](F)(F)(F)(F)F.[Cl-].[Ru+2] [3b]	123 ± 3.7

Test system: NALM6
Assay: MTT cytotoxicity, NALM6
Assay type: cell-based, human
Conditions: 48 h incubation, read-out: Cytotoxic effect, IC50
Experimental: as §1, §2

SMILES	IC50 [µM]
CCc1cc(CC)n(C(N)=S)n1.Cc1ccc(C(C)C)cc1.F[P-](F)(F)(F)(F)F.[Cl-].[Ru+2] [3b]	18.5 ± 2.3

Test system: MCF7
Assay: MTT cytotoxicity, MCF7
Assay type: cell-based, human
Conditions: 48 h incubation, read-out: Cytotoxic effect, IC50
Experimental: as §1, §2

SMILES	IC50 [µM]
CCc1cc(CC)n(C(N)=S)n1.Cc1ccc(C(C)C)cc1.F[P-](F)(F)(F)(F)F.[Cl-].[Ru+2] [3b]	132 ± 5.3

Test system: Hep 3b
Assay: MTT cytotoxicity, Hep 3b
Assay type: cell-based, human
Conditions: 48 h incubation, read-out: Cytotoxic effect, IC50
Experimental: as §1, §2

SMILES	IC50 [µM]
CCc1cc(CC)n(C(N)=S)n1.Cc1ccc(C(C)C)cc1.F[P-](F)(F)(F)(F)F.[Cl-].[Ru+2] [3b]	62.4 ± 2.7

Test system: Caco2
Assay: MTT cytotoxicity, Caco2
Assay type: cell-based, human
Conditions: 48 h incubation, read-out: Cytotoxic effect, IC50
Experimental: as §1, §2

SMILES	IC50 [µM]
CCc1cc(CC)n(C(N)=S)n1.Cc1ccc(C(C)C)cc1.F[P-](F)(F)(F)(F)F.[Cl-].[Ru+2] [3b]	82.4 ± 8.4

Test system: HEC1A
Assay: Mitochondrial potential, JC-1 probe, HEC1A
Assay type: cell-based, human
Conditions: IC50 concentration
Experimental: Cells (10 × 10^3/well) were seeded in black 96-well plates and grown for 24 h to reach the log phase. […] After removing the medium, the cell monolayer was washed twice with PBS solution and 50 μL of the JC-1 probe at a final concentration of 5 μM was added to the wells of the plate. The cells were incubated with the dye for 30 min in a CO2 incubator. Subsequently, the changes in the fluorescence of monomers (λex = 485 nm and λem = 525 nm) and aggregates (λex = 530 nm and λem = 590 nm) using JC-1 were monitored. The results of the tested trials were presented as the ratio of fluorescence of aggregates and JC1 monomers as a percentage of control values, which was assumed to be 100%.

SMILES	decrease in mitochondrial potential (JC-1) [%]
CCc1cc(CC)n(C(N)=S)n1.Cc1ccc(C(C)C)cc1.F[P-](F)(F)(F)(F)F.[Cl-].[Ru+2] [3b]	~50

Test system: SW620
Assay: MTT cytotoxicity, SW620
Assay type: cell-based, human
Conditions: 48 h incubation, read-out: Cytotoxic effect, IC50
Experimental: as §1, §2

SMILES	IC50 [µM]
CCc1cc(CC)n(C(N)=S)n1.Cc1ccc(C(C)C)cc1.F[P-](F)(F)(F)(F)F.[Cl-].[Ru+2] [3b]	78.8 ± 7.4

Test system: A549
Assay: MTT cytotoxicity, A549
Assay type: cell-based, human
Conditions: 48 h incubation, read-out: Cytotoxic effect, IC50
Experimental: as §1, §2

SMILES	IC50 [µM]
CCc1cc(CC)n(C(N)=S)n1.Cc1ccc(C(C)C)cc1.F[P-](F)(F)(F)(F)F.[Cl-].[Ru+2] [3b]	162 ± 7.9

Test system: LoVo
Assay: MTT cytotoxicity, LoVo
Assay type: cell-based, human
Conditions: 48 h incubation, read-out: Cytotoxic effect, IC50
Experimental: as §1, §2

SMILES	IC50 [µM]
CCc1cc(CC)n(C(N)=S)n1.Cc1ccc(C(C)C)cc1.F[P-](F)(F)(F)(F)F.[Cl-].[Ru+2] [3b]	99.1 ± 9.4

Test system: HEC1A
Assay: MTT cytotoxicity, HEC1A
Assay type: cell-based, human
Conditions: 48 h incubation, read-out: Cytotoxic effect, IC50
Experimental: as §1, §2

SMILES	IC50 [µM]
CCc1cc(CC)n(C(N)=S)n1.Cc1ccc(C(C)C)cc1.F[P-](F)(F)(F)(F)F.[Cl-].[Ru+2] [3b]	40.1 ± 2.1

Test system: Ishikawa
Assay: MTT cytotoxicity, Ishikawa
Assay type: cell-based, human
Conditions: 48 h incubation, read-out: Cytotoxic effect, IC50
Experimental: as §1, §2

SMILES	IC50 [µM]
CCc1cc(CC)n(C(N)=S)n1.Cc1ccc(C(C)C)cc1.F[P-](F)(F)(F)(F)F.[Cl-].[Ru+2] [3b]	121 ± 3.7

Test system: HCC38
Assay: MTT cytotoxicity, HCC38
Assay type: cell-based, human
Conditions: 48 h incubation, read-out: Cytotoxic effect, IC50
Experimental: as §1, §2

SMILES	IC50 [µM]
CCc1cc(CC)n(C(N)=S)n1.Cc1ccc(C(C)C)cc1.F[P-](F)(F)(F)(F)F.[Cl-].[Ru+2] [3b]	> 200

Test system: HL60
Assay: MTT cytotoxicity, HL60
Assay type: cell-based, human
Conditions: 48 h incubation, read-out: Cytotoxic effect, IC50
Experimental: as §1, §2

SMILES	IC50 [µM]
CCc1cc(CC)n(C(N)=S)n1.Cc1ccc(C(C)C)cc1.F[P-](F)(F)(F)(F)F.[Cl-].[Ru+2] [3b]	52.9 ± 2.1

Test system: Colo205
Assay: MTT cytotoxicity, Colo205
Assay type: cell-based, human
Conditions: 48 h incubation, read-out: Cytotoxic effect, IC50
Experimental: as §1, §2

SMILES	IC50 [µM]
CCc1cc(CC)n(C(N)=S)n1.Cc1ccc(C(C)C)cc1.F[P-](F)(F)(F)(F)F.[Cl-].[Ru+2] [3b]	91.6 ± 1.6

Test system: not listed separately
Assay: Lipophilicity by RP-TLC
Assay type: physicochemical
Design: key: RM = log(1/Rf − 1), Rf = a/b
Conditions: eluent AcCN: H2O at 30–70% v/v, 22 °C
Experimental: All the experimental solutions of standard substances (0.1 mg/mL) were prepared by dissolving ligands (1a–1d) or ruthenium complexes (2a/3a–2d/3d) in ethanol. Commercially-available octadecyl-modified silica aluminum sheets (20 × 20 cm) were cut into 5 × 10 cm plates. The plates were manually spotted with 1.0 μL of freshly prepared solutions using automatic pipets, 5 mm from each edge. The chromatograms for all compounds (1a/2a/3a–1d/2d/3d) were developed using a horizontal developing chamber and the solvent migration distance was about 4.5 cm. The plates were visually inspected under UV light at 254 nm. Each zone was clearly marked and its distance was manually measured. The RP-TLC analyses of lipophilicity were performed at ambient temperature (22 °C). In this experiment, all measurements were performed in triplicate and the obtained results were used in further calculations. The acetonitrile and water mixtures for ligands 1a–1d and arene–ruthenium(II) complexes 2a/3a–2d/3d were used as mobile phases, with […] content increasing in the range of 30–70% v/v, at 5% intervals. Values of the chromatographic retention coefficient Rf (as shown Formula (1)) and RM (as shown Formula (2)), based on received chromatograms, were calculated and converted as follows:(1) Rf=a/b (2) RM=log1/Rf−1

SMILES	Lipophilicity, RM
CCc1cc(CC)n(C(N)=S)n1.Cc1ccc(C(C)C)cc1.F[P-](F)(F)(F)(F)F.[Cl-].[Ru+2] [3b]	2.73

Test system: Hela
Assay: MTT cytotoxicity, Hela
Assay type: cell-based, human
Conditions: 48 h incubation, read-out: Cytotoxic effect, IC50
Experimental: as §1, §2

SMILES	IC50 [µM]
CCc1cc(CC)n(C(N)=S)n1.Cc1ccc(C(C)C)cc1.F[P-](F)(F)(F)(F)F.[Cl-].[Ru+2] [3b]	101 ± 6.7

Test system: human microvascular endothelial cell line HMEC1
Assay: MTT cytotoxicity, normal endothelial cells HMEC1
Assay type: cell-based
Conditions: HMEC1 normal endothelial cells, 48 h incubation, read-out: Cytotoxic effect, IC50
Experimental: as §1, §2

SMILES	IC50 [µM]
CCc1cc(CC)n(C(N)=S)n1.Cc1ccc(C(C)C)cc1.F[P-](F)(F)(F)(F)F.[Cl-].[Ru+2] [3b]	135 ± 6.7

Same assay, conditions: HMEC-1 vs cancer cells

SMILES	IC50 for HMEC-1 higher than for cancer cells (selectivity)
CCc1cc(CC)n(C(N)=S)n1.Cc1ccc(C(C)C)cc1.F[P-](F)(F)(F)(F)F.[Cl-].[Ru+2] [3b]	3–5 times

Test system: WM115
Assay: MTT cytotoxicity, WM115
Assay type: cell-based, human
Conditions: 48 h incubation, read-out: Cytotoxic effect, IC50
Experimental: as §1, §2

SMILES	IC50 [µM]
CCc1cc(CC)n(C(N)=S)n1.Cc1ccc(C(C)C)cc1.F[P-](F)(F)(F)(F)F.[Cl-].[Ru+2] [3b]	51.7 ± 5.3
